Assay results from publication PMC6271298, “Pharmacophore Generation from a Drug-like Core Molecule Surrounded by a Library Peptide via the 10BASEd-T on Bacteriophage T7” (Molecules, 2014).

System: Sal-conjugated peptide-streptavidin complex
Test: Competitive binding assay with biotin (fluorescence polarization)
Details: various concentrations of biotin; 20 nM peptide (4 pmol) and 15 μM streptavidin (3 nmol); 50 mM Tris-HCl, pH 8.0, 150 mM NaCl, 1 mM TCEP-NaOH
Description: (B) Competitive binding assay. Biotin as a competitor was mixed with the Sal-conjugated peptide-streptavidin complex.
Fluorescence polarization was measured with a HYBRID-3000ES (Photoscience, Tokyo, Japan) equipped with appropriate filters (Ex. 480 nm and Em. 535/40 nm). The Sal-conjugated fluorescent peptide (4 pmol) was incubated with various concentrations of streptavidin, NeutrAvidin, or bovine serum albumin (BSA) in tris-buffered saline (50 mM Tris-HCl, pH 8.0, 150 mM NaCl) supplemented with 1 mM TCEP-NaOH at 30 °C. Concentration of the fluorescent peptide was determined by absorption coefficient at 495 nm. NeutrAvidin® and BSA were purchased from Thermo Scientific and Nacalai tesque, respectively. Concentrations of streptavidin and NeutrAvidin were determined by absorption coefficient at 280 nm. Concentration of BSA was determined by Bradford protein assay (Bio-Rad). Klotz plot was generated by GraphPad Prism software 6.0 (GraphPad Software, San Diego, CA, USA), and the sigmoid curve was fitted with non-linear least squares analysis to obtain the dissociation constant. […] For the competitive binding assay, various concentrations of biotin were added to the solution containing Sal-conjugated peptide-streptavidin complex (4 pmol of the peptide and 3 nmol of streptavidin; 20 nM and 15 μM, respectively). Biotin was purchased from New England Biolabs (Ipswich, MA, USA).

O=C(O)CCCC[C@@H]1SC[C@@H]2NC(=O)N[C@@H]21 [biotin]
disruption of Sal-conjugated peptide-streptavidin interaction by biotin: fully disrupted
